# Measured values reported in US9387186B2, “Thiourea derivatives” (priority 2014, dated 2016).
# Read-outs that look alike come from different tables or passages of the source.
# How the values were obtained:
# Type in all cases: cell-based, Staphylococcus aureus
# [1] = system: Clinical Isolates; experiment: High throughput screening assay (MABA) against MDR S. aureus; settings: for activity in MABA (in words): summary of Table 1
# Method: (§1) In growth medium (Muller Hinton broth), the pure isolated colonies were inoculated and incubated at 37° C. for 20-24 hours. After 20-24 hours, the turbidity was checked and adjusted to 0.5 McFarland standards.
# (§2) For this assay, the stock solutions of 1 mg/mL concentration of compounds (I and II) were made by using DMSO. 96-Wells sterile, flat bottom micro titer plates were used with proper labeling, 20 μg/mL of both compounds were added in first wells and made two fold serial dilutions by using sterile broth. The cells suspensions (conc. 5×10^5) were then added in each wells, finally the volume was made up with broth up to 200 μL in each well. The plate was sealed and incubated at 37° C. for 20-24 hours. Experiments were carried out in triplicate manner. After incubation of 20-24 hours, Alamar Blue Dye was added (10%) to the culture volume and kept the plates on shaking incubator at 37° C. for 3 to 4 hours. Change in color was then assessed visually and qualitatively. Quantitative analysis was recorded by taking absorbance at 570 and 600 nm by a spectrophotometer.
# (§3) The above mentioned protocol was followed by the method reported by Sarkar et al., (2007) with slight modifications.
# (§4) Percentage reduction and inhibition of Alamar blue dye was calculated by using the following formulas:
# (§5) [formula] Where, • εox=molar extinction coefficient of Alamar blue oxidized form (blue) • εred=molar extinction coefficient of Alamar blue reduced form (pink) • A=absorbance of test wells • A′=absorbance of negative control well • λ1=570 nm • λ2=600 nm
# (§6) Here control wells contain only media plus Alamar Blue, while the test wells contain both Alamar Blue with the test compounds.
# (§7) [formula] Where, • εox=molar extinction coefficient of Alamar blue oxidized form (blue) • A=absorbance of test wells • A°=absorbance of positive growth control well • λ1=570 nm • λ2=600 nm
# (§8) Here control wells contain cells+media+Alamar Blue, while the test wells contain both Alamar Blue with the test compounds+cells (The percent inhibitions are available in Table 1).
# [2] = system: EMRSA-16; experiment: as above; settings: for activity in MABA (in words): summary of Table 1
# Method: as §1, §2, §3, §4, §5, §6, §7, §8
# [3] = system: EMRSA-17; experiment: as above; settings: for activity in MABA (in words): summary of Table 1
# Method: as §1, §2, §3, §4, §5, §6, §7, §8
# [4] = system: MRSA 252; experiment: as above; settings: for activity in MABA (in words): summary of Table 1
# Method: as §1, §2, §3, §4, §5, §6, §7, §8
# [5] = system: EMRSA-16; experiment: Reversal of multi-drug resistance (MIC / FIC, Alamar blue); settings: for MIC of antibiotic in combination: antibiotic in combination of compounds I and II
# Method: (§9) Fixed concentration of compounds I and II and increasing concentration of antibiotics (drugs) were made in 96-well plates. 5×10^5 multidrug resistant S. aureus cells were added in each well and incubated for 20-24 hours. No test compounds and antibiotics were present in control wells Inhibition and growth were noted both visually and by using the dye Alamar blue. FIC of Antibiotic a (FICa)=MIC of Antibiotic a in combination/MIC of Antibiotic a alone FIC of Compound b (FICb)=MIC of Compound b in combination/MIC of Compound b alone
# (§10) The sum of Fractional Inhibitory Concentration (FICs) index of (FICa)+(FICb)=(FICs). Fractional inhibitory concentrations were calculated by the above cited formula. (The FIC values of compounds I and II are available (FIGS. 4A and 4B). Protocol of Chung et al. (2011), with slight modifications, was followed for above discussed reversal resistance assay.
# [6] = system: EMRSA-17; experiment: as above
# Method: as §9, §10
# [7] = system: EMRSA-16 and -17; experiment: Membrane potential and integrity, DiBAC4(3) flow cytometry; settings: 20 μg/mL, 20-24 h; DiBAC4(3) fluorescence FL1
# Method: 20 μg/mL of compounds I and II were tested against 5×10^5 multidrug resistant S. aureus cells and incubated for 20-24 hours, while cells without compounds were taken as a control. Stock solution (1 mg/mL) for the membrane potential probe DiBAC4(3) was made in absolute ethanol and stored at −20° C. 1 mL of exponentially growing S. aureus were taken from broth cultures and centrifuged at 11,000 rpm for 2 mins Supernatant was discarded and cells pallets were dissolved in 4 mL of filtered phosphate-buffered saline (PBS). Final 10 μg/mL conc. of fluorogenic substrates DiBAC4 were adjusted in 4 mL volume. The stained cell suspension was incubated at 37° C. for 30 min. Before flow cytometric analysis, cells were washed in PBS buffer by centrifugation. The above mentioned protocol was adapted from the procedures of Jepras et al. (1997) with slight modifications. Assays were performed by using Becton Dickinson FACSCaliber™ flow cytometer (USA). A total of 50,000 cells were counted by using Cell Quest software (BD) for data acquisition and analysis. DiBAC4(3) was detected as green fluorescence in the channel FL1 (Veal et al., 2000).
# [8] = system: EMRSA-16 and -17; experiment: Inhibition of MDR efflux pumps, EtBr accumulation flow cytometry; settings: combinations with antibiotics, 3 hrs; FL-2 channel
# Method: Assay Protocol: Different combinations of compounds I and II with antibiotics, and antibiotic alone, were made and incubated with bacterial cells for 3 hrs. After incubation cells were stained with ethidium bromide. Both the control and treated cells were centrifuged for 3 mins at 13,000 rpm. The pallet was washed with PBS. Negative control was free from ethidium bromide (EtBr), while positive control contains (EtBr). By using FL2 channel, FACS analyses were carried out. Protocol of Kalle et al. (2009) was employed with some modifications.
# Flow cytometry data acquisition: For data acquisition and analysis Cell Quest software (BD) were used. A total number of 50,000 cells were counted. EtBr fluorescence was detected through (FL-2 channel).
# [9] = system: EMRSA-16 and -17; experiment: Reactive oxygen species (O2-) production, lucigenin CL assay; settings: 25, 50 and 100 μg/mL; lucigenin chemiluminescence
# Method: Assay Protocol: 5×10^5 Cells were incubated with the different concentrations of compounds (25, 50 and 100. μg/mL), leucigenin and filtered phosphate buffer saline. For the triggering of reaction, DMSO was added to the each well at the time of RLU determination. No test compounds were added in positive control but it contained DMSO, while no test compound and DMSO were added in negative control. Chemiluminescence (CL) was determined at room temperature by luminometer. The light emission results were measured in relative light unit (RLU). Protocol of above discussed protocol was followed by the method of Albesa et al (2002) with slight modifications.
# [10] = Staphylococcus aureus, 20 μg/mL, Alamar blue, 20-24 h
# [11] = Staphylococcus aureus, EMRSA-17, substance alone, read-out: MIC
compound,measurement,setting,value
"COc1cccc(NC(=S)Nc2cccc(Cl)c2)c1 [II, N-(3-Chlorophenyl)-N-(3methoxyphenyl) thiourea]",inhibition at 20 µg/mL,[1]; [10],19.6%
same,activity in MABA (in words),[2]; 20 μg/mL,active
same,inhibition at 20 µg/mL,[2]; [10],50.1%
same,activity in MABA (in words),[3]; 20 μg/mL,active
same,inhibition at 20 µg/mL,[3]; [10],82.6%
same,inhibition at 20 µg/mL,[4]; [10],14.8%
same,MIC,"[5]; Staphylococcus aureus, substance alone",52 µg/mL
same,MIC,[6]; [11],25 µg/mL
same,effect on membrane potential and integrity,[7],depolarization and the disruption of cytoplasmic membrane
same,inhibition of efflux pump (EtBr accumulation),[8],excellent capacity to inhibit the bacterial efflux pump mechanism
same,production of reactive oxygen species (O2-),[9],generation of O2^− in MDR cells were detected
"NC(N)=O [Urea, Carbamide, carbonyl diamide, carbonyldiamine, Diaminomethanal]",% Inhibition 20 μg/mL Clinical Isolates,"[1]; 20 μg/mL, Alamar blue, 20-24 h",No Inhibition
same,activity in MABA (in words),[1],resistant
same,activity in MABA (in words),[2]; 20 μg/mL,resistant
same,% Inhibition 20 μg/mL EMRSA-16,"[2]; Alamar blue, 20-24 h",No Inhibition
same,activity in MABA (in words),[3]; 20 μg/mL,resistant
same,% Inhibition 20 μg/mL EMRSA-17,"[3]; Alamar blue, 20-24 h",No Inhibition
same,% Inhibition 20 μg/mL MRSA 252,"[4]; 20 μg/mL, Alamar blue, 20-24 h",No Inhibition
same,activity in MABA (in words),[4],resistant
NCC[C@H](O)C(=O)N[C@@H]1C[C@H](N)[C@@H](O[C@H]2O[C@H](CN)[C@@H](O)[C@H](O)[C@H]2O)[C@H](O)[C@H]1O[C@H]1O[C@H](CO)[C@@H](O)[C@H](N)[C@H]1O [amikacin],MIC of antibiotic in combination,[5],4 µg/mL
same,MIC,[6]; Staphylococcus aureus,256 µg/mL
O=C(N[C@H](CO)[C@H](O)c1ccc([N+](=O)[O-])cc1)C(Cl)Cl [chloramphenicol],MIC of antibiotic in combination,[5],16 µg/mL
O=C(O)c1cn(C2CC2)c2cc(N3CCNCC3)c(F)cc2c1=O [ciprofloxacin],MIC of antibiotic in combination,[5],4 µg/mL
CCC[C@@H]1C[C@@H](C(=O)N[C@@H]([C@H]2O[C@H](SC)[C@H](O)[C@@H](O)[C@H]2O)[C@H](C)Cl)N(C)C1 [clindamycin],MIC of antibiotic in combination,[5],32 µg/mL
same,MIC,[6]; [11],4100 µg/mL
Cc1onc(-c2ccccc2)c1C(=O)N[C@@H]1C(=O)N2[C@@H]1SC(C)(C)[C@@H]2C(=O)O [oxacillin],MIC of antibiotic in combination,[5],16 µg/mL
same,MIC,[6]; [11],2050 µg/mL
Cc1cc(NS(=O)(=O)c2ccc(N)cc2)no1 [sulfamethoxazole],interaction of antibiotic with compounds (FIC),"[6]; EMRSA-17, with both compounds I and II",indifference effect
same,MIC,[6]; [11],2080 µg/mL
Thiocarbamide [Thiourea],% Inhibition 20 μg/mL Clinical Isolates,"[1]; 20 μg/mL, Alamar blue, 20-24 h",No Inhibition
same,activity in MABA (in words),[1],resistant
same,activity in MABA (in words),[2]; 20 μg/mL,resistant
same,% Inhibition 20 μg/mL EMRSA-16,"[2]; Alamar blue, 20-24 h",No Inhibition
same,activity in MABA (in words),[3]; 20 μg/mL,resistant
same,% Inhibition 20 μg/mL EMRSA-17,"[3]; Alamar blue, 20-24 h",No Inhibition
same,% Inhibition 20 μg/mL MRSA 252,"[4]; 20 μg/mL, Alamar blue, 20-24 h",No Inhibition
same,activity in MABA (in words),[4],resistant
gentamicin,MIC of antibiotic in combination,[5],8 µg/mL
same,MIC,"[6]; EMRSA-17, substance alone",1024 µg/mL
neomycin,MIC of antibiotic in combination,[5],8 µg/mL
same,MIC,"[6]; EMRSA-17, substance alone",512 µg/mL
penicillin,MIC of antibiotic in combination,[5],8 µg/mL
same,MIC,"[6]; EMRSA-17, substance alone",1024 µg/mL
